In PubChem BioAssay AID256 (DTP/NCI, 2004):
Inconclusive results and toxic doses are left out. The calls were made as follows: active = survival T/C of 150% or more; inactive = T/C below 125% in these data.

Test system: CD2F1 mice, L1210 leukemia ip, survival T/C
Assay: NCI In Vivo Anticancer Drug Screen. Data for tumor model L1210 Leukemia (intraperitoneal) in CD2F1 (CDF1) mice
Details: higher = longer survival
Summary of the method: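 Each value reflects a quotient of treated over vehicle control outcomes in mice with a transplanted tumor.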

[1] = endpoint: mean survival time, dose: 50.0 mg/kg/injection, schedule: Q01DX009 (ip), vehicle: saline with Tween-80
[2] = endpoint: mean survival time, dose: 100.0 mg/kg/injection, schedule: Q01DX009 (ip), vehicle: saline with Tween-80
[3] = endpoint: mean survival time, dose: 200.0 mg/kg/injection, schedule: Q01DX009 (ip), vehicle: saline with Tween-80
[4] = endpoint: mean survival time, dose: 100.0 mg/kg/injection, schedule: Q01DX001 (ip), vehicle: saline with Tween-80
[5] = endpoint: mean survival time, dose: 200.0 mg/kg/injection, schedule: Q01DX001 (ip), vehicle: saline with Tween-80
[6] = endpoint: mean survival time, dose: 400.0 mg/kg/injection, schedule: Q01DX001 (ip), vehicle: saline with Tween-80
[7] = endpoint: mean survival time, dose: 100.0 mg/kg/injection, schedule: Q04DX003 (ip), vehicle: saline with Tween-80
[8] = endpoint: mean survival time, dose: 200.0 mg/kg/injection, schedule: Q04DX003 (ip), vehicle: saline with Tween-80
[9] = endpoint: mean survival time, dose: 400.0 mg/kg/injection, schedule: Q04DX003 (ip), vehicle: saline with Tween-80
[10] = endpoint: mean survival time, dose: 150.0 mg/kg/injection, schedule: Q01DX001 (ip), vehicle: saline
[11] = endpoint: mean survival time, dose: 400.0 mg/kg/injection, schedule: Q01DX009 (ip), vehicle: saline with Tween-80
[12] = endpoint: median survival time, dose: 25.0 mg/kg/injection, schedule: Q01DX009 (ip), vehicle: saline with Tween-80
[13] = endpoint: mean survival time, dose: 25.0 mg/kg/injection, schedule: Q04DX003 (ip), vehicle: saline
[14] = endpoint: mean survival time, dose: 50.0 mg/kg/injection, schedule: Q04DX003 (ip), vehicle: saline
[15] = endpoint: mean survival time, dose: 100.0 mg/kg/injection, schedule: Q04DX003 (ip), vehicle: saline
[16] = endpoint: mean survival time, dose: 100.0 mg/kg/injection, schedule: Q01DX001 (ip), vehicle: saline

Measured: T/C

OCC1OC(n2ncc3c(Nc4ccccc4)ncnc32)C(O)C1O (stereo not drawn)
inactive: endpoint: mean survival time, dose: 6.25 mg/kg/injection, schedule: Q01DX005 (ip), vehicle: other 97 % of control | endpoint: mean survival time, dose: 12.5 mg/kg/injection, schedule: Q01DX005 (ip), vehicle: other 91 % of control | endpoint: mean survival time, dose: 25.0 mg/kg/injection, schedule: Q01DX005 (ip), vehicle: other 100 % of control | endpoint: mean survival time, dose: 50.0 mg/kg/injection, schedule: Q01DX005 (ip), vehicle: other 96 % of control | endpoint: mean survival time, dose: 100.0 mg/kg/injection, schedule: Q01DX005 (ip), vehicle: other 92 % of control | endpoint: mean survival time, dose: 200.0 mg/kg/injection, schedule: Q01DX005 (ip), vehicle: other 96 % of control | endpoint: mean survival time, dose: 400.0 mg/kg/injection, schedule: Q01DX005 (ip), vehicle: other 96 % of control

NCC(F)(F)C(F)(F)C(F)(F)CN
inactive: [1] 98 % of control | [2] 107 % of control | [3] 103 % of control

Cc1ccc(S(=O)(=O)OCCCCOS(=O)(=O)c2ccc(C)cc2)cc1
inactive: endpoint: mean survival time, dose: 100.0 mg/kg/injection, schedule: Q04DX003 (ip), vehicle: other 105 % of control | endpoint: mean survival time, dose: 200.0 mg/kg/injection, schedule: Q04DX003 (ip), vehicle: other 94 % of control | endpoint: mean survival time, dose: 400.0 mg/kg/injection, schedule: Q04DX003 (ip), vehicle: other 96 % of control

Cc1csc2nccc(Cl)c12
inactive: [4] 100 % of control | [5] 112 % of control | [6] 97 % of control

Nc1cccc2scnc12 (tested in a mixture with another compound)
inactive: [7] 104 % of control | [8] 98 % of control | [9] 95 % of control

O=C(COc1ccc(Br)cc1C(=O)O)Nc1ccccc1
inactive: [7] 96 % of control | [8] 97 % of control | [9] 94 % of control

S=c1sc2ccccc2n1CN1CCCCC1
inactive: [4] 100 % of control | [5] 100 % of control | [6] 108 % of control

CN(C)CCNCCN(C)C
inactive: endpoint: mean survival time, dose: 75.0 mg/kg/injection, schedule: Q01DX001 (ip), vehicle: saline 100 % of control | [10] 100 % of control | endpoint: mean survival time, dose: 300.0 mg/kg/injection, schedule: Q01DX001 (ip), vehicle: saline 102 % of control

CN(C)S(=O)(=O)c1ccccc1C(O)(c1ccccc1)c1ccccc1
inactive: [2] 103 % of control | [7] 104 % of control | [3] 94 % of control | [8] 101 % of control | [11] 101 % of control | [9] 98 % of control

O=C(O)CS(=O)(=O)c1ccc(Cl)cc1
inactive: endpoint: mean survival time, dose: 100.0 mg/kg/injection, schedule: Q01DX001 (ip), vehicle: Klucel (hydroxypropylcellulose) (HPC) 111 % of control | endpoint: mean survival time, dose: 200.0 mg/kg/injection, schedule: Q01DX001 (ip), vehicle: Klucel (hydroxypropylcellulose) (HPC) 103 % of control | endpoint: mean survival time, dose: 400.0 mg/kg/injection, schedule: Q01DX001 (ip), vehicle: Klucel (hydroxypropylcellulose) (HPC) 100 % of control

CC(CCC/C=C/CCCN(C)C(=N)N)CC(C)C1OC(=O)C(C)C(O)/C=C/C(C)C(O)C(C)C(O)C(C)C(O)CCCC(O)CC2(O)OC(CC(OC(=O)CC(=O)O)CC(O)CC(O)C(C)C(O)/C=C/C=C/C1C)CC(O)C2O (stereo not drawn)
inactive: endpoint: mean survival time, dose: 5.5 mg/kg/injection, schedule: Q01DX009 (ip), vehicle: saline 100 % of control

CCCCCCCCCCCCCCOc1ccc(OCCCCCCCCC)cc1
inactive: [4] 94 % of control | [5] 94 % of control | [6] 95 % of control

CC(C)N1C(=O)N(Cl)C2C1N(Cl)C(=O)N2Cl (stereo not drawn)
inactive: endpoint: median survival time, dose: 1.5 mg/kg/injection, schedule: Q01DX009 (ip), vehicle: saline with Tween-80 101 % of control | endpoint: median survival time, dose: 3.0 mg/kg/injection, schedule: Q01DX009 (ip), vehicle: saline with Tween-80 102 % of control | endpoint: median survival time, dose: 6.0 mg/kg/injection, schedule: Q01DX009 (ip), vehicle: saline with Tween-80 93 % of control | endpoint: median survival time, dose: 12.0 mg/kg/injection, schedule: Q01DX009 (ip), vehicle: saline with Tween-80 103 % of control | endpoint: median survival time, dose: 24.0 mg/kg/injection, schedule: Q01DX009 (ip), vehicle: saline with Tween-80 104 % of control | [12] 100 % of control

S=C(NCNC(=S)c1ccncc1)c1ccncc1
inactive: [12] 102 % of control | endpoint: median survival time, dose: 50.0 mg/kg/injection, schedule: Q01DX009 (ip), vehicle: saline with Tween-80 103 % of control | endpoint: median survival time, dose: 100.0 mg/kg/injection, schedule: Q01DX009 (ip), vehicle: saline with Tween-80 106 % of control | endpoint: median survival time, dose: 200.0 mg/kg/injection, schedule: Q01DX009 (ip), vehicle: saline with Tween-80 104 % of control | endpoint: median survival time, dose: 400.0 mg/kg/injection, schedule: Q01DX009 (ip), vehicle: saline with Tween-80 104 % of control

O=C1Cc2cccc(=O)c(O)c2C(=O)O1
inactive: [13] 96 % of control | [14] 104 % of control | [15] 94 % of control

O=C(CCl)OCC(Cl)Cl
inactive: [2] 104 % of control | [3] 112 % of control

CC(C)(OC(=O)C(NC=O)C(C)(C)S)OC(=O)C(NC=O)C(C)(C)S (stereo not drawn)
inactive: [2] 101 % of control | [3] 101 % of control | [11] 101 % of control

c1cc(C2CCOCC2)ccn1
inactive: [1] 109 % of control | [15] 92 % of control | endpoint: mean survival time, dose: 200.0 mg/kg/injection, schedule: Q04DX003 (ip), vehicle: saline 90 % of control

CCN(CC)CC#CCCCCN(CC)CC
inactive: endpoint: mean survival time, dose: 25.0 mg/kg/injection, schedule: Q01DX009 (ip), vehicle: saline with Tween-80 101 % of control | [13] 96 % of control | [1] 95 % of control | [14] 94 % of control | [2] 93 % of control | [7] 94 % of control | [15] 94 % of control

O=C1c2cccc(O)c2C(=O)c2c(O)cc(CO)cc21
inactive: endpoint: mean survival time, dose: 1.25 mg/kg/injection, schedule: Q01DX009 (ip), vehicle: other 96 % of control | endpoint: mean survival time, dose: 2.5 mg/kg/injection, schedule: Q01DX009 (ip), vehicle: other 102 % of control | endpoint: mean survival time, dose: 5.0 mg/kg/injection, schedule: Q01DX009 (ip), vehicle: other 96 % of control | endpoint: mean survival time, dose: 10.0 mg/kg/injection, schedule: Q01DX009 (ip), vehicle: other 102 % of control

CCOC(=O)CC(=O)C(F)(F)F.CCOC(=O)CC(=O)C(F)(F)F.[Ni]
inactive: [10] 115 % of control

[Se]=[P+](OC1CCCCC1)OC1CCCCC1
inactive: [16] 90 % of control | endpoint: mean survival time, dose: 200.0 mg/kg/injection, schedule: Q01DX001 (ip), vehicle: saline 92 % of control | endpoint: mean survival time, dose: 400.0 mg/kg/injection, schedule: Q01DX001 (ip), vehicle: saline 92 % of control

C1CCC(CCC2CCCC[N-]2)[N-]C1.[I][Co][I] (stereo not drawn)
inactive: endpoint: mean survival time, dose: 25.0 mg/kg/injection, schedule: Q01DX001 (ip), vehicle: saline with Tween-80 95 % of control | endpoint: mean survival time, dose: 50.0 mg/kg/injection, schedule: Q01DX001 (ip), vehicle: saline with Tween-80 86 % of control | [4] 123 % of control | [16] 103 % of control

CCC(C)CC(C)N (stereo not drawn)
inactive: [16] 104 % of control
